# Test results reported in patent US10160748B2 (AbbVie Inc., priority 2015, dated 2018).
# Biological target: TNFα trimer (Homo sapiens, UniProt P01375)
# Assay: TNFα FP Competitive Binding Assay
# Details: FP binding assay; 20 nM TNFα trimer, 1 nM OregonGreen488 probe; read-out: TNF IC50
# Method: TNFα FP Competitive Binding Assay
# • 1. Assay Buffer: Prepare 1× Assay Buffer (Water with 47 mM HEPES, 47 mM NaCl, 0.9 mM EDTA, 0.0071% Triton X-100) by adding 25 mL of 1 M HEPES, 5 mL of 5 M NaCl, 1 mL of 0.5 M EDTA, and 375 μL of a 10% Triton X-100 stock to a fresh 500 mL bottle of water. • 2. Assay Mixture: Prepare fresh Assay Mixture containing 20 nM TNFα trimer (60 nM protein) and 1 nM 2′,7′-difluoro-3′,6′-dihydroxy-N-(2-(2-(2-((4-(isoquinolin-8-yl)-3-(4-(isoquinolin-8-yl)phenethoxy)benzyl)oxy)ethoxy)ethoxy)ethyl)-3-oxo-3H-spiro[isobenzofuran-1,9′-xanthene]-5-carboxamide probe in 1× Assay Buffer. Compound Plate Preparation Manual 12-Point 1:3 Dilution Plates: (384 Well Polypropylene Plates)
# Top concentration of compounds, 10 mM in DMSO, dispensed in rows A-O in columns 1 and 13. Compounds are serially diluted 1:3 with DMSO in columns 2-12 or 14-24 using a 16-channel Matrix pipettor. Plates stored at −20° C.
# Discovery Preps 12-Point 1:3 Dilution Plates: (384 Well Assay Plates)
# Top concentration, 5 mM in DMSO, of compounds placed in rows A-O in columns 1 and 13. Compounds are serially diluted 1:3 with DMSO in columns 2-12 or 14-24. Compound solutions are dispensed into replicate assay plates at 410 nL per well. Plates stored at 4° C.
# TNFα FP Competitive Binding Assay Protocol
# • 1. Compound plates warmed to rt. • 2. Fresh Assay Mixture is prepared. • 3. Assay Mixture (20 μL) is dispensed each well of 384 assay plates using a Thermo Multidrop Combi or 16-channel Matrix pipettor. If Manual 12-point 1:3 Dilution Plates are to be tested, Assay Mix is dispensed into empty plates. Discovery Preps 12-point 1:3 Dilution Plates already contain 410 nL compound solution in DMSO. • 4. For Manual 12-point 1:3 Dilution Plates, 0.7 μL is manually transferred using a 16-channel Matrix pipettor to replicate assay plates containing 20 μL Assay Mixture for a final top compound concentration of 338 μM (3.4% DMSO). • 5. For Discovery Preps 12-point 1:3 Dilution Plates, 20 μL Assay Mixture added the 410 nL compound solution already in the plates yields a final top compound concentration of 100 μM (2.0% DMSO). • 6. Background subtraction controls are wells P1-P8 containing only Assay Buffer. The low % inhibition controls are wells P9-P16 containing only Assay Mix. The high % inhibition are wells P17-P24 containing only 1 nM 2′,7′-difluoro-3′,6′-dihydroxy-N-(2-(2-(2-((4-(isoquinolin-8-yl)-3-(4-(isoquinolin-8-yl)phenethoxy)benzyl)oxy)ethoxy)ethoxy)ethyl)-3-oxo-3H-spiro[isobenzofuran-1,9′-xanthene]-5-carboxamide probe in 1× Assay Buffer. • 7. Plates are incubated at rt for 18-24 h in 37° C. incubator (CO2 is off). • 8. Prior to reading the assay, the plates are placed in a dark cabinet to equilibrate at rt for one hour. • 9. Background-subtracted fluorescence polarization (mP) is measured using a PerkinElmer Envision plate reader. • 10. Raw data is entered into Assay Explorer and dose-response curves are generated using a variable slope curve. Supplies, Materials, and Reagents
# TNFα trimer, sequence (P01375 77-233 limits assumed): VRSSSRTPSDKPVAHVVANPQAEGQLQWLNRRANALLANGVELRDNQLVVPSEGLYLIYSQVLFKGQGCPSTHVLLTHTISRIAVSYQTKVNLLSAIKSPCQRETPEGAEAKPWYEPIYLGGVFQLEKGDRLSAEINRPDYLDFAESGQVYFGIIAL
row,SMILES,IC50 [nM]
1,Cc1ccc(OC(F)F)c(Cn2c3cc(-c4cnc(N5CCN(C(=O)CO)C[C@H]5C)nc4)ccc3c(=O)n2C)c1 [Example 22.4],< 1000
2,"Cn1c(=O)c2ccc(-c3cnc(N4CCN5C(=O)NC[C@H]5C4)nc3)cc2n1Cc1ccccc1OC(F)F (single isomer, unassigned) [Example 7]",< 1000
3,Cc1ccc(C(F)(F)F)c(Cn2c3cc(-c4cnc(N5CCN(C(=O)CO)[C@H](C)C5)nc4)ccc3c(=O)n2C)n1 [Example 19.3],< 1000
4,C[C@H](N)C(=O)OCc1ccc(OC(F)F)c(Cn2c3cc(-c4cnc(N5CCN6C(=O)NC[C@@H]6C5)nc4)ccc3c(=O)n2C)c1 [Example 14.15],< 1000
5,Cn1c(=O)c2ccc(-c3cnc(C(C)(C)O)nc3)cc2n1Cc1cn(Cc2cccnc2)cc1C(F)(F)F [Example #127],< 1000
6,"Cn1c(=O)c2ccc(-c3cnc(N[C@@H]4CCNC(=O)C4)nc3)cc2n1Cc1cc(CO)ccc1OC(F)F (single isomer, unassigned) [Example 26]",< 1000
7,C[C@H]1CN(C(=O)CO)CCN1c1ncc(-c2ccc3c(=O)n(C)n(Cc4ccccc4OC(F)F)c3c2)cn1 [Example 10.17],< 1000
8,"Cc1cccc([C@H](C)n2c3cc(-c4cnc(N5CCN(C(=O)CO)[C@H](C)C5)nc4)ccc3c(=O)n2C)c1 (single isomer, unassigned) [Example 117]",< 1000
9,"C[C@@H]1CN(c2ncc(-c3ccc4c(=O)n(C)n([C@@H](C)c5c(F)cccc5F)c4c3)cn2)CCN1C(=O)CO (single isomer, unassigned) [Example 58]",< 1000
10,Cn1c(=O)c2ccc(-c3cnc(N4CCC(C(=O)O)CC4)nc3)cc2n1Cc1cc(Cl)ccc1Cl [Example 7.2],1000 to 10000
11,Cn1c(=O)c2ccc(-c3cnc(NCC4CNC(=O)C4)nc3)cc2n1Cc1ccccc1OC(F)F (stereo not shown) [Example 2.7],1000 to 10000
12,"CN1CCCC(Nc2ccc(Cl)c(Cn3c4cc(-c5cnc(C(C)(C)O)nc5)ccc4c(=O)n3C)c2)C1=O (stereo not shown) [Example 83, 1-(2-Chloro-5-((1-methyl-2-oxopiperidin-3-yl)amino)benzyl)-6-(2-(2-hydroxypropan-2-yl)pyrimidin-5-yl)-2-methyl-1H-indazol-3(2H)-one]",1000 to 10000
13,Cc1ccc(OC(F)F)c(Cn2c3cc(-c4cnc(N5CCN(C(=O)C6COC6)[C@H](C)C5)nc4)ccc3c(=O)n2C)c1 [Example 21.2],< 1000
14,Cn1c(=O)c2ccc(-c3cnc(N4CCOCC4)nc3)cc2n1CCc1ccccc1F [Example 1.13],> 10000
15,Cn1c(=O)c2ccc(-c3cnc(C(C)(C)O)nc3)cc2n1Cc1cc([C@H]2CC[C@@H](C#N)C2)ccc1OC(F)F (racemic) [Example 97],< 1000
16,"Cn1c(=O)c2ccc(-c3cnc(N4CCN5C(=O)OC[C@@H]5C4)nc3)cc2n1Cc1cc(CO)ccc1OC(F)F [Example 16.3, (S)-7-(5-(1-(2-(difluoromethoxy)-5-(hydroxymethyl)benzyl)-2-methyl-3-oxo-2,3-dihydro-1H-indazol-6-yl)pyrimidin-2-yl)tetrahydro-1H-oxazolo[3,4-a]pyrazin-3(5H)-one]",< 1000
17,C[C@@H]1CN(c2ncc(-c3c(F)cc4c(=O)n(C)n(Cc5ccccc5OC(F)F)c4c3F)cn2)CCN1C(=O)CO [Example 46],< 1000
18,"C[C@@H]1CN(c2ncc(-c3ccc4c(=O)n(C)n([C@H](C)c5ccccc5F)c4c3)cn2)CCN1C(=O)CO (single isomer, unassigned) [Example 86]",1000 to 10000
19,Cc1ccc(OC(F)F)c(Cn2c3cc(-c4cnc(C(C)(C)O)nc4C)ccc3c(=O)n2C)c1 [Example 22.5],< 1000
20,Cc1cccc(C(C)n2c3cc(-c4cnc(N5CCN(C(=O)CO)[C@H](C)C5)nc4)ccc3c(=O)n2C)n1 (stereo partly shown) [Example 24.2],1000 to 10000

row,SMILES,IC50 [nM]
1,Cn1c(=O)c2ccc(-c3cnn(C4CCOCC4)c3)cc2n1Cc1cccc(F)c1 [Example 11.2],> 10000
2,"COCc1cccc(OC(F)F)c1Cn1c2cc(-c3cnc(N4CCN5C(=O)NC[C@@H]5C4)nc3)ccc2c(=O)n1C [Example 33, (R)-7-(5-(1-(2-(Difluoromethoxy)-6-(methoxymethyl)benzyl)-2-methyl-3-oxo-2,3-dihydro-1H-indazol-6-yl)pyrimidin-2-yl)hexahydroimidazo[1,5-a]pyrazin-3(2H)-one]",< 1000
3,Cn1c(=O)c2ccc(-c3cnc(C(C)(C)O)nc3)cc2n1Cc1ccccc1OC(F)F [Example 10.1],1000 to 10000
4,"C[C@@H]1CN(c2ccc(-c3cc4c(cc3F)c(=O)n(C)n4Cc3ccccc3OC(F)F)cn2)CCN1C(=O)CO [Example 60, (R)-1-(2-(Difluoromethoxy)benzyl)-5-fluoro-6-(6-(4-(2-hydroxyacetyl)-3-methylpiperazin-1-yl)pyridin-3-yl)-2-methyl-1H-indazol-3(2H)-one]",< 1000
5,Cc1ccc(OC(F)F)c(Cn2c3cc(-c4cnc(N5CCC[C@@H]5CO)nc4)ccc3c(=O)n2C)c1 [Example 22.8],1000 to 10000
6,CC(=O)N1CCN(c2ncc(-c3ccc4c(=O)n(C)n(Cc5cc(CO)ccc5OC(F)F)c4c3)cn2)CC1 [Example 16.8],< 1000
7,CC(=O)N1CCN(c2ncc(-c3ccc4c(=O)n(C)n(Cc5cc(C)ccc5OC(F)F)c4c3)cn2)C[C@H]1CO [Example 22.10],< 1000
8,CC(=O)N1CCC(Oc2cc(-c3ccc4c(=O)n(C)n(Cc5ccccc5OC(F)F)c4c3)ccn2)CC1 [Example 10.12],1000 to 10000
9,Cc1ccc(OC(F)F)c(Cn2c3cc(-c4cnc(C(C)(C)CO)nc4)c(F)cc3c(=O)n2C)c1 [Example 17.4],< 1000
10,Cc1ccc(OC(F)F)c(Cn2c3cc(-c4cnc(N5CCN(C(=O)CO)[C@H](C)C5)nc4)ccc3c(=O)n2C)c1 [Example 22.3],< 1000
11,Cn1c(=O)c2ccc(-c3cnc(N4CCN5C(=O)OC[C@H]5C4)nc3)cc2n1Cc1cc(CO)ccc1OC(F)F [Example 16.4],< 1000
12,"C[C@@H]1C[C@@H](O)CCN1c1ncc(-c2ccc3c(=O)n(C)n(Cc4ccccc4OC(F)F)c3c2)cn1 [Example 19, 1-(2-(Difluoromethoxy)benzyl)-6-(2-((2R,4S)-4-hydroxy-2-methylpiperidin-1-yl)pyrimidin-5-yl)-2-methyl-1H-indazol-3(2H)-one]",< 1000
13,"Cc1ccc(OC(F)F)c(Cn2c3cc(-c4cnc(C(C)C)nc4)ccc3c(=O)n2C)c1 [Example 124, 1-(2-(Difluoromethoxy)-5-methylbenzyl)-6-(2-isopropylpyrimidin-5-yl)-2-methyl-1H-indazol-3(2H)-one]",< 1000
14,Cn1c(=O)c2ccc(-c3cnc(N4CC5(COC5)C4)nc3)cc2n1Cc1ccccc1OC(F)F [Example 2.4],1000 to 10000
15,"CC(=O)N1CCN(c2ncc(-c3ccc4c(=O)n(Cc5cccc(C#N)c5)n(Cc5ccccc5Cl)c4c3)cn2)C[C@H]1C [Example #134*, (R)-3-((6-(2-(4-Acetyl-3-methylpiperazin-1-yl)pyrimidin-5-yl)-1-(2-chlorobenzyl)-3-oxo-1H-indazol-2(3H)-yl)methyl)benzonitrile]",1000 to 10000
16,"Cn1c(=O)c2ccc(-c3cnc(C(C)(C)O)nc3)cc2n1Cc1cc(NCc2cccnc2)ccc1Cl [Example 53, 1-(2-Chloro-5-((pyridin-3-ylmethyl)amino)benzyl)-6-(2-(2-hydroxypropan-2-yl)pyrimidin-5-yl)-2-methyl-1H-indazol-3(2H)-one]",1000 to 10000
17,Cc1ccc(OC(F)F)c(Cn2c3cc(-c4cnc(N5CCN(C(=O)[C@H](C)N)[C@@H](C)C5)nc4)ccc3c(=O)n2C)c1 [Example 14.6],< 1000
18,"CN1CC[C@@H](Nc2ncc(-c3ccc4c(=O)n(C)n(Cc5cc(CO)ccc5OC(F)F)c4c3)cn2)CC1=O (single isomer, unassigned) [Example 28]",< 1000
19,Cc1ccc(C(F)(F)F)c(Cn2c3cc(-c4cnc(N5CCN6C(=O)NC[C@H]6C5)nc4)ccc3c(=O)n2C)c1 [Example 29.3],< 1000
20,Cn1c(=O)c2ccc(-c3cnc(N4CCN5C(=O)NC[C@H]5C4)nc3)cc2n1Cc1cccnc1C(F)(F)F [Example 29.2],1000 to 10000
